Where “and” joins values, the source holds several entries; their conditions need not be identical. Identical values can stand only once.
How the values were obtained:
VIM-BL21 (VIM-2^+) = experiment: microbe, parasite or virus in culture; format: cell-based, E. coli; settings: VIM-BL21; for FICI: MER + compound, 256 µg mL^-1 set as MIC of Bi(III)
Procedure: (§1) MIC values were determined by standard broth micro-dilution method (Clinical and Laboratory Standards Institute (CLSI) M100-S20, 2010)[64]. Briefly, bacterial cells were cultured in LB broth overnight at 37 °C at 250 rpm and the OD was measured at 600 nm (OD600). The bacterial density was adjusted to about 1 × 10^6 CFU mL^−1 and checked by CFU counting on agar plates afterwards. Tested antibiotics or Bi(III) compounds were added triplicately into individual wells of flat-bottomed 96-well plates and performed 2-fold serial dilution, followed by addition of prepared bacterial inocula. The plate was then incubated at 37 °C for overnight. […] The MIC was determined as the lowest concentration of a drug that could inhibit the growth of microorganism by both visual reading and OD reading at 600 nm using a microtiter plate reader.
(§2) Resulting growth (or lack of growth) was examined after overnight culturing and the lowest concentration that inhibits 99.9% of the original culture was taken as MBC.
(§3) Other procedures were kept strictly the same. […] Synergism was defined when FICI ≤ 0.5, indifference was defined when FICI > 0.5 and < 4, and antagonism was defined when FICI≥4[65]. […] All of the determinations were performed at least in triplicate on different days.

NDM-HK (NDM-1^+) = experiment: microbe, parasite or virus in culture; format: cell-based, E. coli; settings: NDM-HK; for FICI: MER + compound, 256 µg mL^-1 set as MIC of Bi(III), 128 for Bi(NAC)3
Procedure: as §1, §2, §3

[1] = test system: NDM-C. freundii (NDM-1^+); experiment: Microdilution MIC/MBC and checkerboard assay; format: cell-based, Citrobacter freundii; settings: for MBC of MER in combination with compound at 32 µg mL^-1 / MIC of MER in combination with compound at 32 µg mL^-1: NDM-C. freundii (NDM-CF)
Procedure: as §1, §2, §3

NDM-1 [2] = biological target: T1, NDM-1 (Klebsiella pneumoniae, UniProt C7C422); format: cell-based; parameters: endogenous in cells; host or cells: E. coli clinical isolate NDM-HK; settings: NDM-HK cultured with 100 µM compound; control 50.1 °C
Procedure: The cellular thermal shift assay was performed according to a standard method. Clinical isolate of NDM-1-positive E. coli (NDM-HK) was cultured overnight in the absence or presence of 100 µM Bi(III) compounds, i.e., CBS, Bi(NAC)3, Bi(NIT)3. The bacterial pellets were harvested and washed with PBS for 4 times. The cell suspensions were aliquoted into PCR tubes and heat treatment was performed at the designated temperature ranging from 40 °C to 70 °C for 3 min in a 96-well thermal cycler. The tubes were cooled immediately at room temperature for another 3 min after heating and the heating procedures were repeated for three cycles. For the cell lysis, the samples were frozen–thawed for two cycles in liquid nitrogen and thermal cycler set at 25 °C. The samples were vortexed gently after each cycle and were centrifuged at 20,000 × g to obtain the supernatant when the second cycle was finished. All the samples were subjected to western blot analysis for detection and quantification of NDM-1 content as described above.
Target sequence in this assay (C7C422 29-270 limits assumed): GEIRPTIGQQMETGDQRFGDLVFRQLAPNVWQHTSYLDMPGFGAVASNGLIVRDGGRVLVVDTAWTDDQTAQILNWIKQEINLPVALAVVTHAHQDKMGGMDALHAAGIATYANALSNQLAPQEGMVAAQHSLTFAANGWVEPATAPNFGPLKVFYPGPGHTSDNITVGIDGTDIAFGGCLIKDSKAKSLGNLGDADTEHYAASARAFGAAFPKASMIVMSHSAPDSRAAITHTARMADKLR

IMP-BL21 (IMP-4^+) = experiment: microbe, parasite or virus in culture; format: cell-based, E. coli; settings: IMP-BL21
Procedure: as §1, §2, §3

NDM-1 [3] = biological target: T1, NDM-1; format: biochemical; settings: NDM-1 50 nM, 1 h preincubation, MER substrate
Procedure: (§4) Freshly prepared 50 nM of Zn2-NDM-1, Zn2-VIM-2, or Zn2-IMP-4 in 50 mM HEPES/Na pH 7.0, 100 mM NaCl were first incubated with various concentrations of CBS for 1 h at 25 °C, then mixed with equal volume of 0.2 mM MER. The assay was performed in a 1 cm quartz cuvette using the kinetic mode on a Varian Cary50 UV-visible spectrophotometer at 25 °C. The decrease in absorbance at 300 nm due to ring-opening of MER was monitored every second for a duration of 10 min until the reaction was completed. The initial rates were extracted and calculated from each reaction curves for fitting IC50 curves.
Target sequence in this assay (C7C422 29-270, looked up, species assumed): as the sequence (C7C422 29-270 limits assumed) above

VIM-2 = VIM-2 (Escherichia coli, UniProt Q5U7L7); format: biochemical; settings: VIM-2 50 nM, 1 h preincubation, MER substrate
Procedure: as §4

IMP-4 = experiment: IC50 enzyme inhibition assay; format: biochemical; settings: IMP-4 50 nM, 1 h preincubation, MER substrate
Procedure: as §4

NDM-1 [4] = biological target: T1, NDM-1; format: biochemical; settings: MER substrate 10 to 150 µM
Target sequence in this assay (C7C422 29-270, looked up, species assumed): as the sequence (C7C422 29-270 limits assumed) above
Procedure: NDM-1 (50 nM) was incubated with Bi(NIT)3 (0.5, 1.0, and 1.5 µM) for 1 h at 25 °C with gentle shaking. The assay was performed in a 96-well microplate reader at 298 K. The final assay buffer contains 50 mM HEPES at pH 7.0, 100 mM NaCl, with MER as the substrate ranging from 10 to 150 µM. Control experiment was also performed in the absence of inhibitors under the same conditions. The Km and Vmax for both the uninhibited and inhibited reactions were obtained by fitting the data into the double reciprocal Lineweaver–Burk plots.

[5] = test system: NDM-K. pneumonia (NDM-1^+); experiment: Microdilution MIC/MBC and checkerboard assay; format: cell-based, Klebsiella pneumonia; settings: for MBC of MER in combination with compound at 32 µg mL^-1 / MIC of MER in combination with compound at 32 µg mL^-1: NDM-K. pneumonia (NDM-KP)
Procedure: as §1, §2, §3

Compound | MBC of Bi(III) compound alone (VIM-BL21 (VIM-2^+)) [µg/mL] | MBC of MER in combination with compound at 32 µg mL^-1 (VIM-BL21 (VIM-2^+)) [µg/mL] | MIC of Bi(III) compound alone (VIM-BL21 (VIM-2^+)) [µg/mL] | MIC of MER in combination with compound at 32 µg mL^-1 (VIM-BL21 (VIM-2^+)) [µg/mL] | FICI (VIM-BL21 (VIM-2^+)) | MBC of Bi(III) compound/inhibitor alone (NDM-HK (NDM-1^+)) [µg/mL] | MBC of MER in combination with compound at 32 µg mL^-1 (NDM-HK (NDM-1^+)) [µg/mL] | MIC of Bi(III) compound/inhibitor alone (NDM-HK (NDM-1^+)) [µg/mL] | MIC of MER in combination with compound at 32 µg mL^-1 (NDM-HK (NDM-1^+)) [µg/mL] | FICI (NDM-HK (NDM-1^+)) | MBC of MER in combination with compound at 32 µg mL^-1 [1] | MIC of MER in combination with compound at 32 µg mL^-1 [1] | MBC of MER in combination with compound at 32 µg mL^-1 (IMP-BL21 (IMP-4^+)) [µg/mL] | MIC of MER in combination with compound at 32 µg mL^-1 (IMP-BL21 (IMP-4^+)) [µg/mL] | IC50 (NDM-1 [3]) [µM] | IC50 (VIM-2) [µM] | IC50 (IMP-4) [µM] | MBC of MER in combination with compound at 32 µg mL^-1 [5] | MIC of MER in combination with compound at 32 µg mL^-1 [5] | also measured
C[C@H](C[S][Bi+][S]C[C@@H](C)C(=O)N1CCC[C@H]1C(=O)[O-])C(=O)N1CCC[C@H]1C(=O)[O-] [Bi(CPL)2] | > 256 | 1 | > 256 | 0.5 | 0.078 | > 256 | 0.5 | > 256 | 0.5 | 0.125 |  |  |  |  |  |  |  |  |  | 
O=C([O-])CN(CCN(CC(=O)[O-])CC(=O)O)CC(=O)[O-].[Bi+3] [Bi(EDTA)] |  |  |  |  |  | > 256 | 0.5 | > 256 | 0.5 | 0.094 |  |  |  |  |  |  |  |  |  | 
NC(CCC(=O)NC(C[S][Bi]([S]CC(NC(=O)CCC(N)C(=O)O)C(=O)NCC(=O)O)[S]CC(NC(=O)CCC(N)C(=O)O)C(=O)NCC(=O)O)C(=O)NCC(=O)O)C(=O)O (stereo not shown) [Bi(GSH)3] |  |  |  |  |  | > 256 | 4 | > 256 | 2 | 0.250 |  |  |  |  |  |  |  |  |  | 
O=[N+]([O-])[O-].O=[N+]([O-])[O-].O=[N+]([O-])[O-].[Bi+3] [Bi(NIT)3, bismuth nitrate] |  | 2 |  | 1 | 0.063 | > 256 | 4 | > 256 | 2 | 0.266 | 4 µg/mL | 2 µg/mL | 8 | 4 | 0.7 ± 0.13 | 1.2 ± 0.13 | 0.99 ± 0.19 | 1 µg mL^-1 and 1/1 µg mL^-1 | 1 µg mL^-1 and 1/1 µg mL^-1 | colony-forming unit (CFU) counting on agar plate after serial dilutions (NDM-HK; MER 8 μg mL-1 + metal compound 10 μM): no colony was observed; growth inhibition based on optical density (OD) reading (NDM-HK; metal compound 10, 50, 200 µM with MER at ½MIC (8 μg mL^−1), 24 h): > 90%; MBC of Bi(III) compound alone ([1]; NDM-CF): > 256 µg/mL; MIC of Bi(III) compound alone ([1]; NDM-CF): > 256 µg/mL; FICI ([1]; NDM-CF, MER + compound, 256 µg mL^-1 set as MIC of Bi(III)): 0.375; NDM-1 melting temperature, treated group (NDM-1 [2]): 48.1 °C; FICI (IMP-BL21 (IMP-4^+); MER + compound, 256 µg mL^-1 set as MIC of Bi(III)): 0.250; inhibition mode (Lineweaver Burk plot) (NDM-1 [4]): either a non-competitive or an irreversible inhibition mode; MBC of Bi(III) compound alone ([5]; NDM-KP): > 256 µg/mL; MIC of Bi(III) compound alone ([5]; NDM-KP): > 256 µg/mL; FICI ([5]; NDM-KP, MER + compound, 256 µg mL^-1 set as MIC of Bi(III)): 0.125
CC(C)([S][Bi+][S]C(C)(C)C(N)C(=O)O)C(N)C(=O)O (stereo not shown) [Bi(PCM)2] | > 256 | 2 | > 256 | 1 | 0.093 | > 256 | 2 | > 256 | 2 | 0.313 | 2/2 µg mL^-1 | 2/2 µg mL^-1 | 2 | 1 | 2.8 ± 0.11 | 3.71 ± 1.19 | 1 ± 0.37 | 8 µg/mL | 2 µg/mL | 

Reference: paper PMC5789847, “Bismuth antimicrobial drugs serve as broad-spectrum metallo-β-lactamase inhibitors” (Nature Communications, 2018)
